Laboratory results reported in patent US20240318134A1, “IN VITRO GENERATION OF ORGANIZED 3D CELL STRUCTURES INCLUDING HEAD-TRUNK EMBRYO-LIKE STRUCTURES, USING EPIGENETIC REMODELING FACTORS-MICROFLUIDIC PLATFORM SUITABLE FOR THEIR GENERATION” (INSTITUT PASTEUR, priority 2021, published 2024).

Key:
Nanog = Nanog expression at D8 after a round of hypoSUMOylation followed by 5-azacytidine treatment; assay type: cell-based, mouse; conditions: 0.1 μM for 5 days after the first wave of hypoSUMOylation
Dnmt3a = Dnmt3a gene expression upon ML-792 treatment (siSall4 experiment); assay type: cell-based, mouse; conditions: ML-792 treatment for 48 h; induction reduced by Sall4 knockdown
Procedure: (§1) cDNA was generated with a High-Capacity cDNA Reverse Transcription Kit (Applied Biosystems #4368814) from 500 ng to […] of total RNA purified by Trizol extraction. Quantitative real-time PCR analysis was performed with SYBR Green PCR master mix (Applied Biosystems #4309155) and the primer sets indicated in Supplementary Table 7 using cDNA or genomic DNA (local ChIP). Quantitative real-time PCR analysis was performed on a CFX96 Touch Real-Time PCR Detection System (Bio-Rad) or a QuantStudio 6 Flex Real-Time PCR System (Applied Biosystems).

[1] = system: global level of SUMOylation in mouse ESCs; assay: Immunoblots of SUMO1 and SUMO2/3 conjugates in treated ESCs; assay type: cell-based; conditions: D3 and D10, after first and second 48 h treatment; restored at D8 after withdrawal
Procedure: Cells were collected and directly lysed in Laemmli buffer (Bio-Rad #161-0747). Proteins were quantified using Pierce 660 nm Protein Assay (ThermoFisher Scientific #22662) according to manufacturer's instructions. Equal amounts of proteins were loaded on gels and good equilibration of the different samples was assessed by Ponceau staining after membrane transfer. Antibodies against SUMO1 (1:1000, Abcam #ab32058), Actin (1:4000, Sigma #A1978), SUMO2/3 (1:1000, Abcam #ab81371), Gapdh (1:1000, Cell Signaling #2118), Dnmt1 (1:1000, Abcam #ab13537), Dnmt3a (1:1000, Abcam #ab2850), Dnmt3b (1:1000, Abcam #ab2851), Tet2 (1:1000, Cell Signaling #36449S), Histone H3 (1:5000, Abcam #ab24834) were used according to standard protocols and suppliers' recommendations.

mouse ESCs (ES R1 cells) = assay: Generating adherent spheroids from mouse ESCs by two 48 h rounds of SUMO E1 inhibitor followed by medium switch; assay type: cell-based; conditions: two rounds of 48 h treatment in serum+Lif, then switch to N2B27+Lif; ML-792 2.5 μM, TAK-981 0.1 μM
Procedure: • Using ML-792 as hypoSUMOylation agent (SUMO E1 enzyme inhibitor): ESCs (ES R1 cells-129X1×129S1—ATCC) were dissociated with Trypsin-EDTA and plated (2.5 million cells in 100 mm dish) in serum+Lif medium supplemented with 2.5 μM ML-792 (Takeda Pharmaceuticals International Co.). Medium was replaced the next day to refresh treatment. After 48 h of treatment, plates were rinsed twice with PBS then cells were allowed to recover in serum+Lif. 5 days after the end of the first round, cells were similarly counted and plated for a 2nd round of ML-792. After 48 h of treatment, plates were rinsed twice with PBS then cells were allowed to recover in N2B27+Lif medium. […] By contrast the following specific parameters are taken into consideration with TAK-981:
On Day 1: first round. 500 000 ES R1 cells were plated per well well of a gelatin-coated 6-well plate in 2 ml of serum+Lif medium, supplemented with 0.1 μM of TAK-981. On Day 2, medium was replaced (aspirated) to refresh treatment (2 mL of Serum+Lif medium, supplemented with 0.1 μM of TAK-981 were added). After 48 h of treatment, on Day 3, the medium was aspirated and wells were rinsed twice with PBS then cells were allowed to recover in 2 ml of added serum+Lif. 6 days after the end of the first round, cells were similarly counted and plated for a 2nd round of TAK-981 (for example starting on Day 9 from the start of first round). […]

[2] = system: whole genome methylated CG fraction; assay: Genome-wide DNA methylation profiling (Methyl-seq) during the hypoSUMOylation protocol; assay type: cell-based, mouse; conditions: D1 to D10 of the hypoSUMOylation protocol
Procedure: DNA was extracted and purified from 2 million cells for each condition with the Quick-DNA Midiprep Plus Kit (Zymo Research D4075) following manufacturer's instructions. DNA was quantified with a NanoDrop ND-1000 (ThermoFisher Scientific). The NEBNext Enzymatic Methyl-seq Kit (New England Biolabs #E7120S) was used to prepare libraries for detection of 5-mC and 5-hmC. 200 ng of DNA from each sample were sheared to 275 bp fragments with an E220 Focused-ultrasonicator (Covaris) with the following settings: Duty Factor, 10%—Peak Incident Power, 175 W—Cycles per burst, 200—Duration, 100 sec. Fragment size was validated by a 4200 TapeStation System (Agilent Technologies). The NEBNext Enzymatic Methyl-seq Kit workflow was then followed, using the sodium hydroxide option for the denaturation step. The size distribution and concentration of the libraries was determined by TapeStation. The libraries were sequenced on an Illumina HiSeq4000 sequencer as paired-end 100 base reads following Illumina's instructions. […]
Methyl-seq data were processed with the Bismark pipeline^62 using bowtie2 aligner^64 with the default parameters. Biological triplicates were merged and CG sites with at least 5 reads were kept for downstream analyses. Methylated and unmethylated CG sites were counted within predetermined windows (bin or interval) and a binomial test was used to compare different timepoints or regions. […]

[3] = system: mouse ESC-derived spheroids; assay: Marker expression and cell types of spheroids prepared with SUMO E1 inhibitor; assay type: cell-based; conditions: spheroids prepared with TAK-981; same as with ML-792
Procedure: On Day 1: first round. 500 000 ES R1 cells were plated per well well of a gelatin-coated 6-well plate in 2 ml of serum+Lif medium, supplemented with 0.1 μM of TAK-981. On Day 2, medium was replaced (aspirated) to refresh treatment (2 mL of Serum+Lif medium, supplemented with 0.1 μM of TAK-981 were added). After 48 h of treatment, on Day 3, the medium was aspirated and wells were rinsed twice with PBS then cells were allowed to recover in 2 ml of added serum+Lif. 6 days after the end of the first round, cells were similarly counted and plated for a 2nd round of TAK-981 (for example starting on Day 9 from the start of first round). On Day 9, 500 000 ES R1 cells were seeded per well on a gelatin-coated 6-well plate in 2 mL of Serum+Lif medium, supplemented with 0.1 μM of TAK-981 On day 10, the medium was aspirated and 2 ml of serum+Lif medium were added, supplemented with 0.1 μM of TAK-981 After 48 h of treatment (on Day 11), the medium was aspirated and wells were rinsed twice with PBS then cells were allowed to recover in 2 ml of N2B27+Lif medium that were added. Culture was carried out in N2B27+Lif medium.
as §1

| Structure (SMILES) | Nanog expression at D8 (Nanog) | Dnmt3a expression (Dnmt3a) | level of SUMO conjugates (SUMO1, SUMO2/3 immunoblot) [1] | formation of spheroid structures (mouse ESCs (ES R1 cells)) | whole genome methylated CG fraction [2] | emergence of EPI-L cell type [3] | emergence of ESC-L cell type [3] | emergence of XEN-L cell type [3] | pluripotency marker expression in spheroids [3] |
| --- | --- | --- | --- | --- | --- | --- | --- | --- | --- |
| Nc1ncn([C@@H]2O[C@H](CO)[C@@H](O)[C@H]2O)c(=O)n1 [5-azacytidine] | able to maintain a high level of Nanog | – | – | – | – | – | – | – | – |
| NS(=O)(=O)OC[C@H]1C[C@@H](Nc2ncncc2C(=O)c2ccn(Cc3cccc(Br)c3)n2)C[C@@H]1O [ML-792] | – | induction of Dnmt3a | drop of SUMO conjugates at day 3 (D3) and D10 | yielded large spheroid structures on adherent plates | gradual increase of the methylated CG fraction from D1 to D10 | – | – | – | – |
| Cc1sc(C(=O)c2cncnc2NC2C[C@H](COS(N)(=O)=O)[C@@H](C)C2)cc1[C@@H]1NCCc2ccc(Cl)cc21 (stereo partly shown) [TAK-981] | – | – | – | cells form three-dimensional adherent spheroids | – | Emergence of an EPI-L cell type expressing Pou3f1, Fgt5, Wnt3 | Emergence of an ESC-L cell type expressing Dppa3 | Emergence of a XEN-L cell type expressing Sox17, Gata4, Snail | Decrease of pluripotency markers Nanog, Essrb |
